# From patent US20110053897A1 (IRM LLC, priority 2009, published 2011)
# Biological target: T1, Syk kinase (Homo sapiens, UniProt P43405)
# T1 construct: purchased
# Experiment: Syk kinase inhibition, Caliper LabChip off-chip mobility-shift kinase assay
# Format: biochemical
# Details: Caliper LabChip assay; read-out: Syk Enzyme IC50
# Procedure, shortened: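 Purified Syk pre-incubated 15 min with compound in 100 mM HEPES pH 7.5, 1 mM DTT, 10 mM MgCl2 or MnCl2, 0.002% Brij-35, then 1.5 μM fluorescein peptide and ATP at apparent KM added; 1–1.5 h at room temperature, 4% DMSO, EDTA stop. Microfluidic mobility-shift product/substrate conversion gave % inhibition; IC50 from 12-point series (10–0.00003 μM) by 4-parameter fit.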
row,SMILES,IC50
1,O=c1c2c(N[C@H]3CC[C@@H](O)CC3)nc(Nc3cnccn3)cc2ccn1CC(O)C(F)(F)F (stereo partly shown) [compound 1012],0.056 µM
2,CCn1ccc2cc(-c3cnc(N)nc3)nc(N[C@H]3CC[C@@H](O)C3)c2c1=O [compound 1039],0.012 µM
3,CCn1ccc2cc(Nc3cnccn3)nc(NC3CCC(=O)CC3)c2c1=O [compound 969],0.081 µM
4,CC1(Cn2ccc3cc(-c4cnc(N)nc4)nc(NC4(C)CCC4)c3c2=O)COC1 [compound 932],0.057 µM
5,CC(C)n1ccc2cc(Nc3cnccn3)nc(N[C@H]3CC[C@@H](O)C3)c2c1=O [compound 978],0.016 µM
6,CC(C)(C)Nc1nc(-c2cnc(N)nc2)cc2ccn(C3COC3)c(=O)c12 [compound 921],0.021 µM
7,CCn1ccc2cc(Nc3nccc(O)n3)nc(N[C@H]3CC[C@@H](O)C3)c2c1=O [compound 961],0.023 µM
8,CCn1ccc2cc(Nc3nccc(O)n3)nc(N[C@H]3CCC[C@@H]3O)c2c1=O [compound 956],0.066 µM
9,Cc1ccnc(Nc2cc3ccn(C(C)C)c(=O)c3c(N[C@H]3CC[C@@H](O)CC3)n2)c1 [compound 943],0.039 µM
10,O=c1c2c(N[C@H]3CC[C@@H](O)CC3)nc(Nc3cnccn3)cc2ccn1CC(F)(F)F [compound 1025],0.016 µM

# The remaining lines, values ahead:
row,IC50,SMILES
1,0.453 µM,"CC(C)(C)Nc1nc(Nc2cc(C(O)CN)ccn2)cc2ccn(CCO)c(=O)c12 (stereo not shown) [compound 612, 6-(4-(2-amino-1-hydroxyethyl)pyridin-2-ylamino)-8-(tert-butylamino)-2-(2-hydroxyethyl)-2,7-naphthyridin-1(2H)-one]"
2,0.248 µM,CC(C)(C)Nc1nc(Nc2cc(C(=O)NCCc3c[nH]cn3)ccn2)cc2ccn(CCO)c(=O)c12 [compound 687]
3,0.12 µM,CC(C)(C)Nc1nc(Nc2cnccn2)cc2ccn(C3COC3)c(=O)c12 [compound 1014]
4,0.005 µM,CCn1ccc2cc(Nc3cnccn3)nc(NC3(CO)CCC3)c2c1=O [compound 897]
5,0.019 µM,Cc1ccnc(Nc2cc3ccn(CCCO)c(=O)c3c(N[C@H]3CC[C@@H](O)CC3)n2)c1 [compound 947]
6,0.168 µM,Cc1c2ccc(Nc3nc(Nc4cnccn4)cc4ccn(CCO)c(=O)c34)cc2nn1C [compound 656]
7,0.062 µM,Cc1ccnc(Nc2cc3ccn(C(C)C)c(=O)c3c(NC(C)(C)CO)n2)c1 [compound 819]
8,0.051 µM,CCn1ccc2cc(Nc3cnccn3)nc(N[C@@H]3CC[C@H](CO)C3)c2c1=O [compound 795]
9,0.041 µM,CCn1ccc2cc(Nc3nccc(O)n3)nc(NC[C@@H]3CC[C@@H](O)C3)c2c1=O [compound 959]
10,0.041 µM,[2H]C([2H])([2H])n1ccc2cc(Nc3cc(C)ccn3)nc(N[C@H]3CC[C@@H](CO)C3)c2c1=O [compound 985]
11,0.013 µM,Cc1cn(CCO)c(=O)c2c(NC(C)(C)C)nc(-c3cnc(N)nc3)cc12 [compound 671]
12,0.014 µM,CC(O)Cn1ccc2cc(-c3cnc(N)nc3)nc(NC(C)(C)C)c2c1=O (stereo not shown) [compound 927]
13,0.283 µM,CC(C)(C)Nc1nc(Nc2cc(C(C)(C)O)c(Cl)cn2)cc2ccn(CCO)c(=O)c12 [compound 728]
14,0.393 µM,CC(C)(C)Nc1nc(Nc2cc(C3(C(=O)O)CC3)ccn2)cc2ccn(CCO)c(=O)c12 [compound 856]
15,0.027 µM,CC(C)(C)Nc1nc(Nc2cnccn2)cc2ccn(Cc3nn[nH]n3)c(=O)c12 [compound 884]
16,1.9 µM,CCn1ccc2cc(Nc3cc(C)ccn3)nc(N)c2c1=O [compound 801]
17,0.05 µM,CC(C)(C)Nc1nc(-c2cnc(N)nc2)cc2ccn(CC(O)C(F)(F)F)c(=O)c12 (stereo not shown) [compound 926]
18,0.059 µM,CC(C)(C)Nc1nc(Nc2cc(-c3ccnc(N)n3)ccn2)cc2ccn(CCO)c(=O)c12 [compound 691]
19,0.017 µM,CC(C)(C)Nc1nc(Nc2cnccn2)cc2ccn(CC(N)=O)c(=O)c12 [compound 662]
20,0.3 µM,CC(C)Nc1nc(Nc2cc(N3CCC(O)CC3)ccn2)cc2ccn(CCO)c(=O)c12 [compound 852]
21,0.0457 µM,[2H]C([2H])([2H])n1ccc2cc(Nc3cnccn3)nc(N[C@@H](C)CO)c2c1=O [compound 1050]
22,0.037 µM,CCC(O)c1ccnc(Nc2cc3ccn(CCO)c(=O)c3c(NC(C)(C)C)n2)c1 (stereo not shown) [compound 710]
23,0.092 µM,CCn1ccc2cc(Nc3cc(C)ccn3)nc(NC3CCC(C)(O)CC3)c2c1=O (stereo not shown) [compound 951]
24,0.595 µM,CCC(O)(CC)c1ccnc(Nc2cc3ccn(CCO)c(=O)c3c(NC(C)(C)C)n2)c1 [compound 708]
25,0.0222 µM,CC(C)(C)Nc1nc(Nc2cc(C(C)(C)O)ncn2)cc2ccn(C(CO)CO)c(=O)c12 [compound 741]
26,0.081 µM,CC[C@@H](CO)Nc1nc(Nc2cc(C)ccn2)cc2ccn(CC)c(=O)c12 [compound 597]
27,0.02 µM,Cc1ccnc(Nc2cc3ccn(C(C)C)c(=O)c3c(N[C@H]3CC[C@@H](O)C3)n2)c1 [compound 977]

# Same assay, conditions: read-out: Syk Enzyme IC50
row,SMILES,IC50
1,CCN1CCN(CCc2ccc(Nc3nc(Nc4ccc(F)cn4)cc4cc[nH]c(=O)c34)cc2)CC1 [compound 580],0.163 µM
2,Cc1ccnc(Nc2cc3cc[nH]c(=O)c3c(NC3CCC3)n2)c1 [compound 485],0.045 µM
3,CCN1CCN(CCc2ccc(Nc3nc(Nc4ccc(C#N)cn4)cc4cc[nH]c(=O)c34)cc2)CC1 [compound 564],0.385 µM
4,CCN1CCN(CCc2ccc(Nc3nc(-c4cnn(CC(C)C)c4)cc4cc[nH]c(=O)c34)cc2)CC1 [compound 444],0.122 µM
5,COc1cncc(-c2cc3cc[nH]c(=O)c3c(Nc3ccc(C4CCN(C(=O)[C@@H](C)OC)CC4)c(C)c3)n2)n1 [compound 57],0.047 µM
6,O=c1[nH]ccc2cc(-c3cncnc3)nc(Nc3ccc(C4CCNCC4)c(F)c3)c12 [compound 194],0.028 µM
7,CC(C)Nc1nc(Nc2cc(C(=O)O)ccn2)cc2cc[nH]c(=O)c12 [compound 587],0.226 µM
8,Cc1cc(-c2cc3cc[nH]c(=O)c3c(Nc3ccc(C4CCN(C5CC5)CC4)c(C)c3)n2)ccn1 [compound 212],0.39 µM
9,CC(C)(C)N1CC=C(c2ccc(Nc3nc(-c4cncnc4)cc4cc[nH]c(=O)c34)cc2)CC1 [compound 94],0.013 µM
10,Cc1cnc(Nc2cc3cc[nH]c(=O)c3c(Nc3ccc(C4CCN(C5CC5)CC4)c(C)c3)n2)cn1 [compound 248],2.02 µM
11,Cc1cc(Nc2nc(C(C)O)cc3cc[nH]c(=O)c23)ccc1C1CCNCC1 (stereo not shown) [compound 236],0.012 µM
12,COc1cncc(-c2cc3cc[nH]c(=O)c3c(Nc3ccc4c(c3)C3CC4CN(C(=O)C(F)(F)F)C3)n2)n1 (stereo not shown) [compound 95],2.37 µM
13,COc1cncc(-c2cc3cc[nH]c(=O)c3c(Nc3ccc(C4CN(CCC#N)C4)cc3)n2)n1 [compound 153],0.032 µM
14,Cn1ccc2cc(Nc3ccc(C(N)=O)cn3)nc(N)c2c1=O [compound 574],0.142 µM
15,COc1cncc(-c2cc3cc[nH]c(=O)c3c(Nc3ccc(C4CCN(C(=O)N(C)C)CC4)c(C)c3)n2)n1 [compound 177],0.496 µM
16,CCOC(=O)CCc1cc2cc[nH]c(=O)c2c(Nc2ccc(N3CCOCC3)cc2)n1 [compound 245],0.295 µM
17,Cn1ccc2cc(Nc3cnccn3)nc(N[C@H]3CCC[C@H]3O)c2c1=O (racemic) [compound 328],0.039 µM
18,CCOC(C)c1cc2cc[nH]c(=O)c2c(Nc2ccc(N3CCO[C@H](C)C3)c(C)c2)n1 (stereo partly shown) [compound 233],0.754 µM
19,O=c1[nH]ccc2cc(Nc3ccc(Cl)cn3)nc(Nc3ccc(N4CCOCC4)cc3)c12 [compound 526],0.803 µM
20,O=c1[nH]ccc2cc(C3=CCNCC3)nc(Nc3ccc(N4CCOCC4)cc3)c12 [compound 88],0.051 µM
21,Cc1ccnc(Nc2cc3cc[nH]c(=O)c3c(NC3CCN(Cc4ccccc4)C3)n2)c1 (stereo not shown) [compound 553],0.55 µM
22,COCC(C)Nc1nc(Nc2ccccn2)cc2cc[nH]c(=O)c12 (stereo not shown) [compound 276],0.167 µM
23,CCC(C)Nc1nc(Nc2ccccn2)cc2cc[nH]c(=O)c12 (stereo not shown) [compound 263],0.756 µM
24,CC(=O)c1cc2cc[nH]c(=O)c2c(Nc2ccc(C3CCNCC3)c(C)c2)n1 [compound 232],0.242 µM
25,Cc1ccnc(Nc2cc3ccn(C)c(=O)c3c(Nc3ccc(S(C)(=O)=O)cc3)n2)c1 [compound 332],0.078 µM
26,COc1cncc(-c2cc3cc[nH]c(=O)c3c(Nc3ccc(C4CCN(CCC(C)(C)C)CC4)c(C)c3)n2)n1 [compound 61],0.158 µM
27,O=c1[nH]ccc2cc(C3CCSCC3)nc(Nc3ccc(N4CCOCC4)cc3)c12 [compound 15],0.702 µM
28,COc1cncc(-c2cc3cc[nH]c(=O)c3c(Nc3ccc(C4CCN(CCF)CC4)c(C)c3)n2)n1 [compound 79],0.027 µM
29,Cc1ccnc(Nc2cc3cc[nH]c(=O)c3c(N3CCCC3)n2)c1 [compound 269],0.554 µM

# Continued, values first:
row,IC50,SMILES
1,0.097 µM,[2H]C([2H])([2H])n1ccc2cc(Nc3cnccn3)nc(NC(C)(C)C)c2c1=O [compound 469]
2,0.803 µM,CCNc1nc(Nc2cc(C)ccn2)cc2cc[nH]c(=O)c12 [compound 566]
3,0.296 µM,[2H]C([2H])([2H])n1ccc2cc(Nc3cc(C)c(F)cn3)nc(NC(C)(C)C)c2c1=O [compound 531]
4,0.025 µM,CCn1ccc2cc(Nc3cc(C)ccn3)nc(N[C@@H](C)CO)c2c1=O [compound 359]
5,0.041 µM,Cc1ccnc(Nc2cc3ccn(C)c(=O)c3c(N[C@H]3CC[C@H](O)CC3)n2)c1 [compound 357]
6,0.057 µM,Cc1ccnc(Nc2cc3ccn(C)c(=O)c3c(N[C@H]3CCOC3)n2)c1 [compound 325]
7,0.137 µM,COCCn1ccc2cc(Nc3cnccn3)nc(NC(C)C)c2c1=O [compound 319]
8,0.076 µM,Cc1cc(Nc2cc3ccn(CCO)c(=O)c3c(NC(C)(C)CO)n2)ncc1F [compound 498]
9,0.067 µM,CCn1ccc2cc(Nc3cc(C)ccn3)nc(N[C@H]3CCC[C@H]3O)c2c1=O (racemic) [compound 360]
10,7.44 µM,CCn1ccc2cc(Nc3cncnc3C)nc(NC(C)C)c2c1=O [compound 348]
